{
  "source": "ChEMBL document CHEMBL5465560",
  "about": "“Selectivity Literature for EUbOPEN Chemogenomic Library” (2024)",
  "key": {"[1]": {"target": "T1, MAP/microtubule affinity-regulating kinase 4 (Homo sapiens) (UniProt Q96L34)", "T1 sequence (whole entry)": "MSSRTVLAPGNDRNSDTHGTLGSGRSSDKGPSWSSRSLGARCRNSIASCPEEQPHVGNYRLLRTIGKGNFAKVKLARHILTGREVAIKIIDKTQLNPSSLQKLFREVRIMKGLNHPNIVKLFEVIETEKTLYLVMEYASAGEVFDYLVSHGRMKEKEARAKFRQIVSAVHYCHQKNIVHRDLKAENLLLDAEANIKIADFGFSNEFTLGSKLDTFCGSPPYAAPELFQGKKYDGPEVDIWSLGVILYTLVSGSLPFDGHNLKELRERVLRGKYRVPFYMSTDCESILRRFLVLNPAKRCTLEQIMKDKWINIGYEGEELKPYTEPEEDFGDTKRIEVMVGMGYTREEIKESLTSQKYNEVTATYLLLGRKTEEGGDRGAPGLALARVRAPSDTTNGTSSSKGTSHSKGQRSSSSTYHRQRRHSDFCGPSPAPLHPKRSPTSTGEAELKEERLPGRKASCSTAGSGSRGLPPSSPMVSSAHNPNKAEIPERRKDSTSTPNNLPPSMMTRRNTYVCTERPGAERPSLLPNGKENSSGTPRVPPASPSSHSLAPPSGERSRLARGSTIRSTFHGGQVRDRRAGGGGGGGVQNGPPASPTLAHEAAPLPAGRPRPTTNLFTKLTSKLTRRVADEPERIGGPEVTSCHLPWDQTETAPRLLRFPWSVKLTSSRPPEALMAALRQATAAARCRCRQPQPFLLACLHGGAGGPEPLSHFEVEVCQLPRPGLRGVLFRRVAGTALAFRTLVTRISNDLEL", "test": "Selectivity interaction (ActivX KiNativ screen (kinase selectivity in THP-1 cell lysates)) EUB0000639a MARK4", "type": "subcellular", "conditions": "lysate, at 5 µM"}, "[2]": {"target": "Phosphatidylinositol 4,5-bisphosphate 3-kinase catalytic subunit alpha isoform (Homo sapiens) (UniProt P42336)", "test": "Selectivity interaction (Kinase panel (Invitrogen)) EUB0000639a PIK3CA", "conditions": "at 200 nM"}, "[3]": {"target": "Phosphatidylinositol 4-phosphate 5-kinase type-1 alpha (Homo sapiens) (UniProt Q99755)", "test": "Selectivity interaction (KinomeScan (DiscoverX)) EUB0000695a PIP5K1A", "conditions": "at 100 nM"}, "[4]": {"target": "Mitogen-activated protein kinase 8 (Homo sapiens, UniProt P45983)", "test": "Selectivity interaction (KinomeScan (DiscoverX)) EUB0001079a MAPK8", "conditions": "at 1 µM"}, "[5]": {"target": "Receptor-type tyrosine-protein kinase FLT3 (Homo sapiens) (UniProt P36888)", "test": "(§1) Selectivity interaction (ProQinase) EUB0000171b FLT3"}, "[6]": {"tested_on": "T2, Receptor-type tyrosine-protein kinase FLT3 (Homo sapiens), P36888 [D835Y]", "T2 sequence (whole entry)": "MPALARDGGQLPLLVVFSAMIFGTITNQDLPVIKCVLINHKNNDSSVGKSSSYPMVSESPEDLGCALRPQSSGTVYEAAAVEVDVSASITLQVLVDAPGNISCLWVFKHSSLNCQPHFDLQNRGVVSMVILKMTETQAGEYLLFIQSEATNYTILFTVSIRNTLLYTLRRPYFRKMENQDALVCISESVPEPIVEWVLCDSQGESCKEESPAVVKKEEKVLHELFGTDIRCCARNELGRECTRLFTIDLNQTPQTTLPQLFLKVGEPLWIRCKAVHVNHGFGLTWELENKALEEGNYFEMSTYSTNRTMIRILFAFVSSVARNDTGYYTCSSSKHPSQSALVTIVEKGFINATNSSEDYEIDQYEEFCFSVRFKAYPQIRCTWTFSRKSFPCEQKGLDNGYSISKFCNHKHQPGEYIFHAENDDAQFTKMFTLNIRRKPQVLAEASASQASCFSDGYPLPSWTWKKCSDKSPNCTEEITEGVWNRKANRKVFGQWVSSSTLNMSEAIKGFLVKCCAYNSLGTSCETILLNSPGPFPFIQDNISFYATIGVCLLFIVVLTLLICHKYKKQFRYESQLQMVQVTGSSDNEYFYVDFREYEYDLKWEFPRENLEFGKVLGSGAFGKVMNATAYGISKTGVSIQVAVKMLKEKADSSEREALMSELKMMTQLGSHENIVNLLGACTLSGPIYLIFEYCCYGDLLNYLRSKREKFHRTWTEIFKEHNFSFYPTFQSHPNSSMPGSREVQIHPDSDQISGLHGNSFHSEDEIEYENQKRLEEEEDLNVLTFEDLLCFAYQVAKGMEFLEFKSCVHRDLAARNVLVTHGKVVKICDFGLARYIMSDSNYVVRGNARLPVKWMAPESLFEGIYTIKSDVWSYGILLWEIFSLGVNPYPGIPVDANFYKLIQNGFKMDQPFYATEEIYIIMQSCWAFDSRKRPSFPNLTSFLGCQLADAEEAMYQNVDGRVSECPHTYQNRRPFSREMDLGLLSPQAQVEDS", "test": "as §1"}, "[7]": {"target": "Ribosomal protein S6 kinase beta-1 (Homo sapiens, UniProt P23443)", "sequence (P23443 whole entry, looked up)": "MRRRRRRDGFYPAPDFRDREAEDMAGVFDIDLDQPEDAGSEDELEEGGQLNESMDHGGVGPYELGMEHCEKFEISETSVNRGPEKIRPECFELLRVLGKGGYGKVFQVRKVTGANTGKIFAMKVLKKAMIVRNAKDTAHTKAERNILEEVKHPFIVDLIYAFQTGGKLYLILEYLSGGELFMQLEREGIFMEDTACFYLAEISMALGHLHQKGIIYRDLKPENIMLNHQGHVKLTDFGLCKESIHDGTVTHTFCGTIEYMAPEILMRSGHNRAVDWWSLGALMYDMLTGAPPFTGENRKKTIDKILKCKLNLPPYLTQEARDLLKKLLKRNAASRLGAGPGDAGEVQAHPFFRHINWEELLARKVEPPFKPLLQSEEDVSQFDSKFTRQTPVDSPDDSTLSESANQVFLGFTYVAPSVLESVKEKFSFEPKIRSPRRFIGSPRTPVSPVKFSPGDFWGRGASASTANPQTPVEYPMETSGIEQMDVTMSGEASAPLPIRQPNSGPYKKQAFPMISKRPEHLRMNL", "test": "Selectivity interaction (KinomeScan (DiscoverX)) EUB0000045b RPS6KB1"}, "[8]": {"test": "Selectivity interaction (KinomeScan (DiscoverX)) EUB0000655a PKNB", "conditions": "at 10 µM"}, "[9]": {"target": "Aurora kinase B (Homo sapiens, UniProt Q96GD4)", "sequence (Q96GD4 whole entry)": "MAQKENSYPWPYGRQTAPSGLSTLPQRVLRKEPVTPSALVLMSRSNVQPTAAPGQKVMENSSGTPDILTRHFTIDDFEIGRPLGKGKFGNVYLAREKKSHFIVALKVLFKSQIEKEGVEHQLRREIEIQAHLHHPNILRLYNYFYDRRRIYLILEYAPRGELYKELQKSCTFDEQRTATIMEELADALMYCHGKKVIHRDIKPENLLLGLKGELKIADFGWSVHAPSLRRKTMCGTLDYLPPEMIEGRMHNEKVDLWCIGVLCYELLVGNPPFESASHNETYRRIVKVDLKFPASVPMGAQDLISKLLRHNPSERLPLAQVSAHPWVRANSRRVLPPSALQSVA", "test": "Selectivity interaction (KinomeScan (DiscoverX)) EUB0001619a AURKB", "conditions": "at 1 µM"}, "[10]": {"target": "DNA-dependent protein kinase catalytic subunit (Homo sapiens) (UniProt P78527)", "sequence (P78527 whole entry)": "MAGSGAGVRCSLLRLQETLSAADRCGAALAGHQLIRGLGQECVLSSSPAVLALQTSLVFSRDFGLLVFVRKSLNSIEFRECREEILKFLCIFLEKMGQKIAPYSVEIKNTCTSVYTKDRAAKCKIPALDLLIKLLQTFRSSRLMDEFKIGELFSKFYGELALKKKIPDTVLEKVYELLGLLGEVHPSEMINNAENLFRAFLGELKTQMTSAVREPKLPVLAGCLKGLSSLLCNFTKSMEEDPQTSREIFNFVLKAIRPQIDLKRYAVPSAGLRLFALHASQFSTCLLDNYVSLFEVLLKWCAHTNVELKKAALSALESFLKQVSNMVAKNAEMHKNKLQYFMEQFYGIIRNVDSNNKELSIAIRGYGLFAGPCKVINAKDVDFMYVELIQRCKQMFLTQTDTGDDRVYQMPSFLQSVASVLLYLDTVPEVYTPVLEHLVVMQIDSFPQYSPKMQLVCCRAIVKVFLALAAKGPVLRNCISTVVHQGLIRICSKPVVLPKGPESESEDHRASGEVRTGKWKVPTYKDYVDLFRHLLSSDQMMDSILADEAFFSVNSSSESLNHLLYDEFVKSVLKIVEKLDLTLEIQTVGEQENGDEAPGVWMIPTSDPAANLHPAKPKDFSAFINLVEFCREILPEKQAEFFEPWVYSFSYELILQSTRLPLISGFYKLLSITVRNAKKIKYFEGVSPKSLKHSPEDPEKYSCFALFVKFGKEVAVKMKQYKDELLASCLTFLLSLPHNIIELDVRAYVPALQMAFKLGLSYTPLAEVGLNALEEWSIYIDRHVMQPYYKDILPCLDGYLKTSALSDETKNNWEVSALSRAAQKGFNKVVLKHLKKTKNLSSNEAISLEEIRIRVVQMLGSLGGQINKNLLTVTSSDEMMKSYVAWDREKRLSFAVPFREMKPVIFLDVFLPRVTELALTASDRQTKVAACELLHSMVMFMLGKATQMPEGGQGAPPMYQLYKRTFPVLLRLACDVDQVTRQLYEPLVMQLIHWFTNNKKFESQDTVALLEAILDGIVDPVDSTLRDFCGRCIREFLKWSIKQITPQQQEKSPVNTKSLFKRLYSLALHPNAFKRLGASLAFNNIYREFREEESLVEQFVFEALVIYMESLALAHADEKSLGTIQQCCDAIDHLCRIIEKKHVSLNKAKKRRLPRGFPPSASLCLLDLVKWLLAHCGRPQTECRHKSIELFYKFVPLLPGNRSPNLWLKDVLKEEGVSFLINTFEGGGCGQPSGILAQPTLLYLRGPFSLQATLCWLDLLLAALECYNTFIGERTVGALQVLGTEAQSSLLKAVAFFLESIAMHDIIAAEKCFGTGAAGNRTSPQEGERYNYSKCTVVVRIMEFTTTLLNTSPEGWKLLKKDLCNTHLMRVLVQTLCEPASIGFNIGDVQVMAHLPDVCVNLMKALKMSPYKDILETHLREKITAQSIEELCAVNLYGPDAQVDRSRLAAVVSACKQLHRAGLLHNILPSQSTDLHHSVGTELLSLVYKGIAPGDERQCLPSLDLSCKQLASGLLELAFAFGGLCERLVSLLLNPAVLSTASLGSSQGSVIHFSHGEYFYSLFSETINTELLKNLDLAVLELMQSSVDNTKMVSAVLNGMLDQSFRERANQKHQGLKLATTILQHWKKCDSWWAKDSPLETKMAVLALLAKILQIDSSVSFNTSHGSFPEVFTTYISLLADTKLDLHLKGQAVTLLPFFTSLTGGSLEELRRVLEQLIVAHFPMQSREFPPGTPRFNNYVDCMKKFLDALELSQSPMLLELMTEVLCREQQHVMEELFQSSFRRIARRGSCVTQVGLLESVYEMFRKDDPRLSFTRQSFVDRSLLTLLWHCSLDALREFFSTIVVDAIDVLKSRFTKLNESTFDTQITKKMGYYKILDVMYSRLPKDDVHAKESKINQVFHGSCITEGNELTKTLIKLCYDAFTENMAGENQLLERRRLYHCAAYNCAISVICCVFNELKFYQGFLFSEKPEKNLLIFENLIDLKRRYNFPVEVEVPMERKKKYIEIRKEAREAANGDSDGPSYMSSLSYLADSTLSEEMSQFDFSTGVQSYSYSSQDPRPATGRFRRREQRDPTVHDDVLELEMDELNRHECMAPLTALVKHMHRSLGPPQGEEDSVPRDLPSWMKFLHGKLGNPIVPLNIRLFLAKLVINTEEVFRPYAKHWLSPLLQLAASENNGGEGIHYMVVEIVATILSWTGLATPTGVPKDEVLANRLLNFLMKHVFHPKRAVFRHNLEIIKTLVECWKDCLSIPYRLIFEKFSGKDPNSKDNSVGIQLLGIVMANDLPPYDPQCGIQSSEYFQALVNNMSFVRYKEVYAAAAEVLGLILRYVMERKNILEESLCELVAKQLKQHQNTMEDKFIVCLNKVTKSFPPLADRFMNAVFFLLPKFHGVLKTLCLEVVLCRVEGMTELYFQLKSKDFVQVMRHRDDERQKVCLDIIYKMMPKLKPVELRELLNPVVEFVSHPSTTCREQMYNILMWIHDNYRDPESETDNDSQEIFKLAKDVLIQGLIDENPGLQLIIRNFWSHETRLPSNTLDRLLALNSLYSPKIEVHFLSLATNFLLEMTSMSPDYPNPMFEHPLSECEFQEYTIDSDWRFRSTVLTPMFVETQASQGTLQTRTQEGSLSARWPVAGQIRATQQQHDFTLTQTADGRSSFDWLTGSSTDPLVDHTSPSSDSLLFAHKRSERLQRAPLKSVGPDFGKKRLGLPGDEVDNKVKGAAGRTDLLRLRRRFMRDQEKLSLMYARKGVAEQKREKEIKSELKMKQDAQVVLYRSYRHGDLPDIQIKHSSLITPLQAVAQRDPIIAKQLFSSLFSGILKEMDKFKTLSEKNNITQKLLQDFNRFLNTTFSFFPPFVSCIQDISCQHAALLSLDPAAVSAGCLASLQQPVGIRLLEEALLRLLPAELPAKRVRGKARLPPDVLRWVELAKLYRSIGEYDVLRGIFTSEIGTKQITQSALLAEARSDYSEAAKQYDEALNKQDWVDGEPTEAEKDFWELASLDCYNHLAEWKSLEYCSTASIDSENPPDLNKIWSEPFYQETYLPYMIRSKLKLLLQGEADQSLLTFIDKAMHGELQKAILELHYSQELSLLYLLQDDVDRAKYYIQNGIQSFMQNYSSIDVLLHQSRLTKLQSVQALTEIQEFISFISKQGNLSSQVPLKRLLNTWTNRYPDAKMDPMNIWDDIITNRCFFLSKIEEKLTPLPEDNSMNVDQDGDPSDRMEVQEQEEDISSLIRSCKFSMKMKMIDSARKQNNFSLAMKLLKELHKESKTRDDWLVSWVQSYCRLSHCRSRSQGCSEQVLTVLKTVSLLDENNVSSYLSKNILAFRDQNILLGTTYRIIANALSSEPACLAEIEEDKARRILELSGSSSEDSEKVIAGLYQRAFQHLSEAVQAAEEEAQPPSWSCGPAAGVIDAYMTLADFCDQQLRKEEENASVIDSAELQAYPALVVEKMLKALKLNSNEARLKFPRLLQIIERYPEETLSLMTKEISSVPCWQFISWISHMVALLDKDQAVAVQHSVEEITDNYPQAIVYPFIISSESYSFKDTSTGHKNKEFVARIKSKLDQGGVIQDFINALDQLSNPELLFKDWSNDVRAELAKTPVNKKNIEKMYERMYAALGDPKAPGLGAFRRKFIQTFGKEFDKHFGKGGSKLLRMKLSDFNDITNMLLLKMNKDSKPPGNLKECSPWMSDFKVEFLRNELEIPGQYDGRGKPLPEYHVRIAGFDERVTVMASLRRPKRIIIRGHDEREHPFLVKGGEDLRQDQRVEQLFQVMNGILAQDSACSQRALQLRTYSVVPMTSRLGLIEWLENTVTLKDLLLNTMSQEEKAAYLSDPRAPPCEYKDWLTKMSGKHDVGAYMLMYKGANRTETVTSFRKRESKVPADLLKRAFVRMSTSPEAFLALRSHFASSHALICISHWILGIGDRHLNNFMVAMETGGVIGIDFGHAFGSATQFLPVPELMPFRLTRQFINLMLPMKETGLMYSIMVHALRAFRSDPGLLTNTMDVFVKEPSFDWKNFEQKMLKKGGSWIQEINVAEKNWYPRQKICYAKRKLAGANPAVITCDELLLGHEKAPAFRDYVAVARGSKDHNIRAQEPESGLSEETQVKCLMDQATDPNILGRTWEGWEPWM", "test": "Selectivity interaction (ActivX KiNativ screen (ex vivo kinase selectivity in human PBMCs)) EUB0001619a PRKDC", "type": "cell-based", "conditions": "PBMC, at 1 µM"}, "[11]": {"target": "Casein kinase II subunit alpha (Homo sapiens, UniProt P68400)", "test": "Selectivity interaction (SelectScreen profiling (Invitrogen)) EUB0000607a CSNK2A1", "conditions": "at 2 µM"}, "[12]": {"target": "3',5'-cyclic-AMP phosphodiesterase 4B (Homo sapiens) (UniProt Q07343)", "test": "Selectivity interaction (Panel of kinases, GPCRs, ion channels and transporters (enzymatic assay)) EUB0000223bCl PDE4B"}},
  "data": [
    {"compound": "CC[C@@H]1[C@H](F)C(=O)N[C@@H]1COc1nccc2cc(C(N)=O)c(OC)cc12", "note": "[ZIMLOVISERTIB]", "values": [
      {"measurement": "% of inhibition", "setting": "[1]", "result": 27.1, "unit": "%"},
      {"measurement": "% of inhibition", "setting": "[2]", "result": 5.29, "unit": "%"}
    ]},
    {"compound": "Cc1cc(F)c(C(=O)Nc2cccc(-c3nncn3C(C)C)n2)cc1-n1cnc(C2CC2)c1", "values": [
      {"measurement": "% of control", "setting": "[3]", "result": 78, "unit": "%"}
    ]},
    {"compound": "Nc1cnc(N2CCc3cc(S(=O)(=O)Nc4c(F)cc(Cl)cc4F)cc(N4CCCC4=O)c32)nc1", "note": "[TP-020n]", "values": [
      {"measurement": "% of control", "setting": "[4]", "result": 78, "unit": "%"}
    ]},
    {"compound": "C=CC(=O)Nc1cccc(C(=O)Nc2ccc(Nc3cc(-c4[nH]c(SC)nc4C)ccn3)cc2)c1", "values": [
      {"measurement": "% of control", "setting": "[5]; at 1 µM", "result": 78, "unit": "%"},
      {"measurement": "% of control", "setting": "[5]; at 5 µM", "result": 49, "unit": "%"},
      {"measurement": "% of control", "setting": "[6]; at 1 µM", "result": 65, "unit": "%"},
      {"measurement": "% of control", "setting": "[6]; at 5 µM", "result": 32, "unit": "%"}
    ]},
    {"compound": "C=CC(=O)Nc1cc(-n2c(=O)ccc3cnc4ccc(-c5ccc(NS(C)(=O)=O)cc5)cc4c32)ccc1C", "values": [
      {"measurement": "% of control", "setting": "[7]; at 1 µM", "result": 100, "unit": "%"},
      {"measurement": "% of control", "setting": "[7]; at 10 µM", "result": 76, "unit": "%"}
    ]},
    {"compound": "CN(C)CCOc1ccc(-c2nc(-c3ccncc3)c(-c3ccc4c(c3)CC/C4=N\\O)[nH]2)cc1", "values": [
      {"measurement": "% of control", "setting": "[8]", "result": 65, "unit": "%"}
    ]},
    {"compound": "N#Cc1cccc(-c2c[nH]c3ncnc(N4CCOCC4)c23)c1", "values": [
      {"measurement": "% of control", "setting": "[9]", "result": 26, "unit": "%"},
      {"measurement": "% of inhibition", "setting": "[10]", "result": -4, "unit": "%"}
    ]},
    {"compound": "CNC(=O)Nc1ccc(-c2nc(N3CC4CCC(C3)O4)c3cnn(C4CCC5(CC4)OCCO5)c3n2)cc1", "values": [
      {"measurement": "% of inhibition", "setting": "[11]", "result": 0, "unit": "%"}
    ]},
    {"compound": "COc1cc(C(=O)N2CC[C@@H](O)[C@@H](N)C2)cc2nc(-c3cc4ccccc4n3CC3CC3)n(C)c12", "values": [
      {"measurement": "pXC50", "setting": "[12]", "result": 4.4, "unit": "M"}
    ]}
  ]
}
